These results are taken from patent publication US12318365B2, “Inhibition of dipeptide repeat proteins” (ALS Therapy Development Institute, priority 2019, dated 2025).

No end group written: not given here.

Assay [1] concerns asymmetrical arginine methylation of NSC-34 cells. The assay can be described thus: Cellular asymmetric arginine methylation (800/700 fluorescence readout) in NSC-34 cells. The format is cell-based, Mouse. The method, then:
On Day 0, NSC-34 Cells were plated in 48 wells of a 96 well plate, and CHO cells were plated in the other 48 wells of the same 96-well plate. NSC-34 cells were plated in DMEM/High glucose media. CHO cells were plated in Ham's F-12K (Kaighn's) Medium. Both cell lines were incubated overnight to reach approximately 50% confluency.
On Day 1, 24 wells of the NSC-34 cells and 24 wells of the CHO cells were treated with the following concentrations of MS023: 1 μM, 3 μM, 6 μM, 10 μM, 30 μM, and 60 μM. The cells were then incubated overnight.
On Day 2, 18 wells of the untreated NSC-34 cells and 18 wells of the untreated CHO cells were treated with the same concentrations of MS023 as those on Day 1. This left 6 wells of each cell line that never received MS023. Once MS023 was added, the cells were incubated overnight.
On Day 3, all media in the 96-well plate was removed and the cells were fixed with 3.7% Paraformaldehyde (PFA). Cells were then washed and permeabilized with 1×PBS/0.1% Triton X-100.
After removing the PBS/Triton wash, Odyssey Blocking Buffer (LI-COR, 927-40100) was applied to all wells and the plate sat at room temperature with moderate shaking for 90 minutes. After 90 minutes, the blocking buffer was removed and the cells were treated with a 1:500 dilution of the Anti-Asymmetric Di-Methyl Arginine Motif primary antibody (Cell Signaling Technology, #13522). Incubation with the primary antibody continued overnight at 4 degrees Celsius with no shaking.
On Day 4, the primary antibody solution was removed from the plate, and the cells were washed with 1×PBS/0.1% Tween 20. After washing, cells were given a secondary antibody mixture containing a 1:1000 dilution of IRDye 800 CW Anti-Rabbit antibody (LI-COR, 926-32211) and a 1:500 dilution of Cell Tag 700 Stain (LI-COR, 926-41090). The secondary antibody mixture remained on cells for 60 minutes with gentle shaking and protected from light.
(§1) After 60 minutes, the secondary antibody mixture was removed and the cells were again washed with 1×PBS/0.1% Tween 20. All wash buffer was then removed, and the plate was gently patted dry to remove excess solution. The plate was then read on the LI-COR Odyssey Classic Imaging System which provides results based on fluorescence. In this experiment, fluorescence occurred as a result of cellular, asymmetric arginine methylation. MS023 was given to cells for either 24 or 48 hours, with expectation for it to reduce cellular, asymmetric arginine methylation. Cell number per well was accounted for using the Cell Tag 700 Stain, which fluorescently labels total protein levels in a cell. To this effect, fluorescence from asymmetrical arginine methylation per well (800) was divided by fluorescence from the total protein level per well (700) to produce an outcome of 800/700.
On Day 1, 24 wells of the NSC-34 cells and 24 wells of the CHO cells were treated with the following concentrations of MS049: 0.2 μM, 1 μM, 2 μM, 10 μM, 20 μM, and 100 μM. The cells were then incubated overnight.
On Day 2, 18 wells of the untreated NSC-34 cells and 18 wells of the untreated CHO cells were treated with the same concentrations of MS049 as those on Day 1. This left 6 wells of each cell line that never received MS049. Once MS049 was added, the cells were incubated overnight.
as §1, with “MS049” for “MS023”, “To this effect, fluorescence from asymmetrical arginine methylation per well (800) was divided by fluorescence from the total protein level per well (700) to produce an outcome of 800/700.” left out

Assay [2] deals with T1, Recombinant PRMT1 protein (Homo sapiens, UniProt Q99873).
T1 construct: purchased Active Motif 31411
T1 sequence (Q99873 whole entry): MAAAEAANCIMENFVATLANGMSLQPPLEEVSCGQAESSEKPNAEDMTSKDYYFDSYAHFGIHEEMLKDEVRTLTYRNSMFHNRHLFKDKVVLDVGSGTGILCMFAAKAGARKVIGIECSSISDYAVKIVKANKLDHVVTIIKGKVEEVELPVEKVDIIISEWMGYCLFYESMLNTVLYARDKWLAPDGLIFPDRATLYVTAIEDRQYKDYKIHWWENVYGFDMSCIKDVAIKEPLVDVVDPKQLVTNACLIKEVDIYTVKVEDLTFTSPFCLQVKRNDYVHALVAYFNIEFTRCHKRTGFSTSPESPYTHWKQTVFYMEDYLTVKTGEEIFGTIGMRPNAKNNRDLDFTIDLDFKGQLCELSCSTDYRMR
The assay can be described thus: In-vitro arginine methylation assay with recombinant PRMT1 and SAM. The conditions noted are these: 37 degrees Celsius, 2 hours, no methylation without PRMT1 or SAM. It is filed as biochemical. How it is done: To assess interaction between PRMT1 and GR15, (SEQ ID NO: 1) an in-vitro methylation assay system was developed. This system consists of a mixture of recombinant PRMT1 enzyme, S-(5′-Adenosyl)-L-methionine iodide, (SAM) as a methyl donor, and potential substrate of PRMT1 activity. For this experiment, 11 tubes were prepared, each containing various amount of the following components; • Recombinant PRMT1 protein (Active Motif, Cat. 31411) • S-(5′-Adenosyl)-L-methionine iodide, (SAM) (Sigma-Aldrich Cat. A4377) • GR15(SEQ ID NO: 1) • PR15(SEQ ID NO: 2) • SOD1 from human erythrocytes (S9636-1KU)
These constituents were mixed in a 0.5 ml flat-capped tubes (Thermo Fisher Scientific, AB0350) according to Table 4 (all values are in microliters (μl)).
Once all tubes were prepared, each tube was gently tapped to ensure mixture, and the tubes were placed in an incubator at 37 degrees Celsius for 2 hours. After 2 hours, the reaction mixture was stopped with the addition of 10 μl of NuPage LDS Sample Buffer (Thermo Fisher Scientific, NP0007). The tubes were gently tapped to ensure mixture, and then boiled for 5 minutes in a 95 degrees Celsius water bath. […]
The gel was then transferred using the iBlot apparatus and an iBlot 2 Nitrocellulose Mini Stack (Thermo Fisher Scientific, IB23002). […] Following wash steps, the membrane was read on the LI-COR Odyssey Classic Imaging System.

For `CC(C)Oc1ccc(-c2c[nH]cc2CN(C)CCN)cc1` [MS023], the “decrease of asymmetrical arginine methylation” value is reported as “approximately 13%” in assay [1] (24 hour treatment, 1 μM, vs untreated cells); approximately 45% in assay [1] (24 hour treatment, 60 μM); approximately 33% in assay [1] (48 hour treatment, 1 μM); approximately 75% in assay [1] (48 hour treatment, 60 μM).

With GRGRGRGRGRGRGRGRGRGRGRGRGRGRGR [GR15], in assay [2], the “asymmetric methylation of the peptide as substrate (anti-H4R3me2a detection)” value is “is asymmetrically methylated by PRMT1”.
